# Experimental data from ChEMBL document CHEMBL1129869, “SPORANDOL: A NOVEL ANTIPARASITIC BINAPHTHALENE FROM CHRYSOSPORIUM MERIDARIUM” (Bioorg Med Chem Lett, 1997).
# Activity calls are given as the source filed them. The calls are words filed in the database; no cut-off is given here.
# Experiments:
# Dipetalogaster maximus = test: Antiparasitic activity against ecto parasite Dipetalogaster maximus in mouse at a dose of 190 mg/kg; Active; type: functional, organism-based; design: dose 190 mg/kg
# Fasciola hepatica = test: Antiparasitic activity against endo parasite Fasciola hepatica in mouse at a dose of 190 mg/kg; Active; type: functional, organism-based; design: dose 190 mg/kg
compound,measurement,setting,value
COc1cc2cc(C)c(C(C)=O)c(O)c2c(O)c1-c1c(OC)cc2cc(C)c(C(C)=O)c(O)c2c1O,Activity,Dipetalogaster maximus,Active
same,Activity,Fasciola hepatica,Active
